As usually defined, the MIC is the least concentration at which growth counts as inhibited.

Test [1] has as its system Multi-resistant Staphylococcus aureus (MRSA) USA300 cells. The experiment in a line: MIC in vitro broth micro-dilution assay, MRSA USA300. The class given is cell-based. The note with it: for MIC: Staphylococcus aureus. The procedure: (§1) Bacterial susceptibility was established through an in vitro cell-based broth micro-dilution assay. To produce accurate and reproducible MIC-values, a procedure was used which follows the guidelines set by the Clinical and Laboratory Standards Institute (CLSI, USA) and the European Committee on Antimicrobial Susceptibility Testing (EUCAST). The micro-dilutions were carried out in 96-well plates, according to FIG. 3, wherein column 1 is a growth control, Columns 2 to 11 are dilutions of 1×, 2×, 4×, 8×, 16×, 32×, 64×, 128×, 256×, 512× respectively, and column 12 is a sterile control. To further increase the reliability of each susceptibility test, inoculation involved the use of three independent overnight cultures (ON1-ON3) thus giving rise to […]. Furthermore, each ON was added to two individual dilution rows, giving rise to […]. The standard inoculum was set to ˜5-10^5 colony-forming units (CFU) mL^−1. This was verified by dilution onto agar plates after each overall run.
(§2) The applied procedure was:
(§3) 1.1 MH or BHI agar plates for dilutions were created, 1 plate per overnight (ON) culture and MH or BHI media. 1.2 Day 1: Preparation of ON cultures of the bacterial strain in question, by inoculation of a single colony in 5 mL of MH or BHI media. Then incubation at 37° C. with aeration for approximately 16-20 hours. Biological triplicates were created by inoculation from 3 different colonies per strain.
(§4) 1.3 Day 2: A 96-well plate with the antibiotic/compound in question was prepared as according to FIG. 3: 1.4 In a 15 mL falcon tube, an appropriate volume of a 1000 μg/mL antibiotic/compound DMSO stock was diluted with MH or BHI media such that a 2× concentration and total volume of 10 mL was achieved. 1.5 A multi-channel pipette was used in the following. 1.6 Column 1 was used for growth control, so no antibiotic/compound was added to that column. 1.7 200 μl of 2× concentration of the antibiotic/compound was added to column 2. Technical duplicates were always created, thus 2 columns per ON culture. 1.8 100 μl of MH or BHI media was added to columns 1, 3-11 and 200 μl of MH or BHI media to column 12. 1.9 100 μl was transferred from column 2 to column 3. The same pipetting tips were used to transfer 100 μL from column 3 to 4. This scheme was repeated until column 11 where 100 μl was discarded after re-suspending. Column 12 was used as a sterile control, so no antibiotic/compound was added to that column. Each transferring involved pipetting up and down 5 to 7 times. 1.10 The plates were fully dried for CFU in the 42° C. incubator, 4× dilutions in triplicates per one plate.
(§5) 1.11 The optical density of bacterial cells in the ON culture was measured at wavelength 600 nm (OD600). Then the ON culture was diluted to an OD600=0.1. 1.12 Then the OD600 was re-measured to make certain that it was between 0.08 and 0.13. 1.13 The prepared 0.1 culture of 1.12 was diluted 100× more by transferring of 100 μl thereof, to 10 ml of MH or BHI media (enough for a 96-well plate). 1.14 Then 200 μl of the 100× dilution in 1.13 was transferred to Eppendorf tubes and kept cold until use. 1.15 100 μl of culture with an OD600 on approximately 0.001 was dispensed to each well of columns 1 to 11. 1.16 The plate was closed. Covered with aluminium foil and small holes were created with a 100-200 μL tip.
(§6) 1.17 The 96-well plate was then incubated at 37° C. with agitation and left for 16-hours.
(§7) 1.18 Verification of standard inoculum: The 100× diluted culture of 1.13 was used to create 10^−1 to 10^−4 dilutions in PBS/0.9% saline (100 μl sample to 900 μl PBS, mix well and continue until 10^−4). 1.19 10 μl of the 10^−2, 10^−3 and 10^−4 dilutions in 1.18 were spotted onto very dry MH or BHI plates in triplicates. 1.20 Then incubated overnight at 37° C. 1.21 The plates were examined manually or by using the plate reader.
A general note: Dilution methods test growth across graded concentrations, often in twofold steps.

The test system of test [2] is vancomycin-resistant enterococci (VRE) cells, VRE 5. The test is described as follows: MIC in vitro broth micro-dilution assay, VRE 5. To be noted: Enterococcus, VRE; lowest concentration to fully inhibit visible growth (OD600); clinical isolate, ampicillin, ciprofloxacin, vancomycin and linezolid resistant; read-out: in vitro susceptibility (MIC) VRE 5. The class given is cell-based. How it is done: as §1, §2, §3, §4, §5, §6, §7

The subject of test [3] is vancomycin-resistant enterococci (VRE) cells, VRE 1. The experiment in a line: MIC in vitro broth micro-dilution assay, VRE 1. The class given is cell-based. To be noted: Enterococcus, VRE; lowest concentration to fully inhibit visible growth (OD600); clinical isolate, ampicillin, ciprofloxacin and vancomycin resistant; read-out: in vitro susceptibility (MIC) VRE 1. How it is done:
as §1, §2, §3, §4, §5, §6, §7

The subject of test [4] is E. faecalis cells. The experiment in a line: MIC in vitro broth micro-dilution assay, E. faecalis. The class given is cell-based, Enterococcus faecalis. The note with it: Enterococcus faecalis; lowest concentration to fully inhibit visible growth (OD600); clinical isolate; read-out: in vitro susceptibility (MIC) E. Faecalis. The procedure: as §1, §2, §3, §4, §5, §6, §7

In test [5] the test system is S. pneumonia cells. The experiment in a line: MIC in vitro broth micro-dilution assay, S. pneumonia. The class given is cell-based, Streptococcus pneumonia. The note with it: Streptococcus pneumoniae; lowest concentration to fully inhibit visible growth (OD600); clinical isolate; read-out: in vitro susceptibility (MIC) S. Pneumonia. How it is done:
as §1, §2, §3, §4, §5, §6, §7

[6] abbreviates: lowest concentration to fully inhibit visible growth (OD600), ATCC strain, read-out: in vitro susceptibility (MIC) MRSA USA3000.

In brackets after ≈: the same amount, converted by molar mass. Read-outs that look alike come from different tables or passages of the source.

Consider `C=C[C@]1(C)C[C@@H](OC(=O)Cn2cc(-c3ccc(Cn4cnc5c(N)ncnc54)cc3)nn2)[C@]2(C)[C@H](C)CC[C@]3(CCC(=O)[C@H]32)[C@@H](C)[C@@H]1O` [C1], for which the MIC in test [1] (setting [6]) stood at 0.03 µg/mL (≈ 0.046 µM); in test [1] (read-out: MIC value, MRSA USA300 cells), 0.03 µg/mL (≈ 0.046 µM); in test [2] it was 0.25 µg/mL (≈ 0.383 µM); in test [3], 0.25 µg/mL (≈ 0.383 µM); in test [4], 0.25 µg/mL (≈ 0.383 µM); in test [5] it was 0.05 µg/mL (≈ 0.0766 µM).

Turning to `C=C[C@]1(C)C[C@@H](OC(=O)Cn2cc(-c3ccc(CN4C(=O)c5ccccc5C4=O)cc3)nn2)[C@]2(C)[C@H](C)CC[C@]3(CCC(=O)[C@H]32)[C@@H](C)[C@@H]1O` [C2, 22-[4-(4-((N-phthalimide)methyl)phenyl)-1H-1,2,3-triazol-1-yl]-22-deoxypleuromutilin], the MIC in test [1] (setting [6]) was 0.25 µg/mL (≈ 0.376 µM); in test [2] it was above 8 µg/mL; in test [3], above 8 µg/mL; in test [4], 8 µg/mL (≈ 12 µM); in test [5], 4 µg/mL (≈ 6.02 µM).

Consider `C=C[C@]1(C)C[C@@H](OC(=O)Cn2cc(-c3ccc(CO)cc3)nn2)[C@]2(C)[C@H](C)CC[C@]3(CCC(=O)[C@H]32)[C@@H](C)[C@@H]1O` [C4, 22-[4-(4-(hydroxymethyl)phenyl)-1H-1,2,3-triazol-1-yl]-22-deoxypleuromutilin], for which the MIC in test [1] (setting [6]) came out at 0.25 µg/mL (≈ 0.467 µM); in test [2], 1 µg/mL (≈ 1.87 µM); in test [3] it was 1 µg/mL (≈ 1.87 µM); in test [4], 2 µg/mL (≈ 3.73 µM); in test [5], 4 µg/mL (≈ 7.47 µM).

Take `C=C[C@]1(C)C[C@@H](OC(=O)Cn2cc(-c3ccc(Cn4cnc5c(N)nc(F)nc54)cc3)nn2)[C@]2(C)[C@H](C)CC[C@]3(CCC(=O)[C@H]32)[C@@H](C)[C@@H]1O` [C5, 22-[4-(4-((6-Amino-2-fluoro-9H-purin-9-yl)methyl)phenyl)-1H-1,2,3-triazol-1-yl]-22-deoxypleuromutilin]: the MIC in test [1] (setting [6]) came to 0.06 µg/mL (≈ 0.0894 µM).

For the compound `C=C[C@]1(C)C[C@@H](OC(=O)Cn2cc(-c3ccc(Cn4cnc5c(N)nc(N)nc54)cc3)nn2)[C@]2(C)[C@H](C)CC[C@]3(CCC(=O)[C@H]32)[C@@H](C)[C@@H]1O` [C6, 22-[4-(4-((2,6-Diamino-9H-purin-9-yl)methyl)phenyl)-1H-1,2,3-triazol-1-yl]-22-deoxypleuromutilin], the MIC came out at 0.06 µg/mL (≈ 0.0898 µM) in test [1] (setting [6]); 0.25 µg/mL (≈ 0.374 µM) in test [2]; 0.25 µg/mL (≈ 0.374 µM) in test [3]; 0.25 µg/mL (≈ 0.374 µM) in test [4]; 0.25 µg/mL (≈ 0.374 µM) in test [5].

Take `C=C[C@]1(C)C[C@@H](OC(=O)Cn2cc(-c3ccc(Cn4cnc5c(N)ncnc54)nc3)nn2)[C@]2(C)[C@H](C)CC[C@]3(CCC(=O)[C@H]32)[C@@H](C)[C@@H]1O` [C7, 22-[4-(6-((6-Amino-9H-purin-9-yl)methyl)pyridin-3-yl)-1H-1,2,3-triazol-1-yl]-22-deoxypleuromutilin]: the “in vitro susceptibility (MIC) MRSA USA3000” value in test [1] (lowest concentration to fully inhibit visible growth (OD600), ATCC strain, listed as drawing 80) amounted to 0.03 µg/mL. Besides, the MIC in test [2] is 0.12 µg/mL (≈ 0.184 µM); in test [3] it was 0.12 µg/mL (≈ 0.184 µM); in test [4], 0.25 µg/mL (≈ 0.382 µM); in test [5], 0.25 µg/mL (≈ 0.382 µM).

`C=C[C@]1(C)C[C@@H](OC(=O)Cn2cc(-c3ccc(Cn4cnc5c(N)ncnc54)c(OC)c3)nn2)[C@]2(C)[C@H](C)CC[C@]3(CCC(=O)[C@H]32)[C@@H](C)[C@@H]1O` [C8, 22-[4-(4-((6-Amino-9H-purin-9-yl)methyl)-3-methoxyphenyl)-1H-1,2,3-triazol-1-yl]-22-deoxypleuromutilin]: the MIC in test [1] (setting [6]) came out at 0.06 µg/mL (≈ 0.0879 µM); in test [2], 0.12 µg/mL (≈ 0.176 µM); in test [3], 0.12 µg/mL (≈ 0.176 µM); in test [4], 0.25 µg/mL (≈ 0.366 µM); in test [5], 0.25 µg/mL (≈ 0.366 µM).

Take `C=C[C@]1(C)C[C@@H](OC(=O)Cn2cc(-c3ccc(Cn4cnc5c(N)ncnc54)c(O)c3)nn2)[C@]2(C)[C@H](C)CC[C@]3(CCC(=O)[C@H]32)[C@@H](C)[C@@H]1O` [C9, 22-[4-(4-((6-amino-9H-purin-9-yl)methyl)-3-hydroxyphenyl)-1H-1,2,3-triazol-1-yl]-22-deoxypleuromutilin]: the MIC turned out to be 0.03 µg/mL (≈ 0.0449 µM) in test [1] (setting [6]); 0.25 µg/mL (≈ 0.374 µM) in test [2]; 0.25 µg/mL (≈ 0.374 µM) in test [3]; 0.25 µg/mL (≈ 0.374 µM) in test [4]; 0.25 µg/mL (≈ 0.374 µM) in test [5].

`C=C[C@]1(C)C[C@@H](OC(=O)Cn2cc(-c3cccc(NC(=O)c4ccccc4)c3)nn2)[C@]2(C)[C@H](C)CC[C@]3(CCC(=O)[C@H]32)[C@@H](C)[C@@H]1O` [C14, 22-[4-(3-benzamidophenyl)-1,2,3-triazole-1-yl]-22-deoxypleuromutilin]: the MIC in test [1] (setting [6]) stood at 0.5 µg/mL (≈ 0.8 µM).

As to `C=C[C@]1(C)C[C@@H](OC(=O)Cn2cc(-c3cccc(Oc4ncnc5[nH]cnc45)c3)nn2)[C@]2(C)[C@H](C)CC[C@]3(CCC(=O)[C@H]32)[C@@H](C)[C@@H]1O` [C16, 22-[4-(3-((9H-purin-6-yl)oxy)phenyl)-1,2,3-triazole-1-yl]-22-deoxypleuromutilin], the minimal inhibitory concentration (MIC) in test [1] (setting [6]) was 0.12 µg/mL (≈ 0.188 µM).

Take `C=C[C@]1(C)C[C@@H](OC(=O)Cn2cc(-c3cccc(Oc4nc(N)nc5[nH]cnc45)c3)nn2)[C@]2(C)[C@H](C)CC[C@]3(CCC(=O)[C@H]32)[C@@H](C)[C@@H]1O` [C17, 22-[4-(3-((2-amino-9H-purin-6-yl)oxy)phenyl)-1,2,3-triazole-1-yl]-22-deoxypleuromutilin]: the minimum inhibitory concentration (MIC) in test [1] (setting [6]) worked out at 0.12 µg/mL (≈ 0.183 µM).

In the case of `C=C[C@]1(C)C[C@@H](OC(=O)CSC2CC[C@@H](N)C[C@H]2O)[C@]2(C)[C@H](C)CC[C@]3(CCC(=O)[C@H]32)[C@@H](C)[C@@H]1O.CC(=O)O` (stereo partly shown) [Lefamulin.Ac, reference compound], the MIC is 0.12 µg/mL in test [2], 0.12 µg/mL in test [3], 0.06 µg/mL in test [4] and 0.12 µg/mL in test [5].

With `C=C[C@]1(C)C[C@@H](CC(=O)Cn2cc(-c3cccc(-n4cnc5c(N)ncnc54)c3)nn2)[C@]2(C)[C@H](C)CC[C@]3(CCC(=O)[C@H]32)[C@@H](C)[C@@H]1O` [prior art compound 7, reference compound], the MIC in test [1] (setting [6]) stood at 0.06 µg/mL (≈ 0.0942 µM).

For `C=C[C@]1(C)C[C@@H](CC(=O)Cn2cc(-c3ccc(-n4cnc5c(N)ncnc54)cc3)nn2)[C@]2(C)[C@H](C)CC[C@]3(CCC(=O)[C@H]32)[C@@H](C)[C@@H]1O` [prior art compound 8, reference compound], the MIC in test [1] (setting [6]) is 0.5 µg/mL (≈ 0.785 µM).

The values are drawn from patent publication US20230219964A1, “ANTIBACTERIAL AND ANTIFUNGAL PLEUROMUTILIN CONJUGATES” (SYDDANSK UNIVERSITET, priority 2020, published 2023).
